From US20250100988A1, “PREPARATION OF A COMPOUND FOR THE TREATMENT OF GOUT OR HYPERURICEMIA” (Arthrosi Therapeutics, Inc., priority 2021, published 2025)

Assay: Solubility of test articles in HBSS assay buffer
Conditions: at all tested concentrations; highest tested concentration 10 μM
Description: Before the experiment, the medium was removed and the cells were washed twice with 100 μL of HBSS without Cl^−. Uptake experiments were carried out at 37±1° C. in 50 μL of HBSS without Cl^−, pH 7.4 containing the probe substrate (20 μM uric acid) and the test article (TA) or solvent.

| Structure (SMILES) | solubility in HBSS buffer |
| --- | --- |
| [2H]c1c([2H])c([2H])c2c(C(=O)c3cc(Br)c(O)c(Br)c3)c(C(C)O)oc2c1[2H] (centres unmarked) [Compound 1, (3,5-dibromo-4-hydroxyphenyl)(2-(1-hydroxyethyl)benzofuran-3-yl-4,5,6,7-d4)methanone] | soluble |
| CCc1oc2ccccc2c1C(=O)c1cc(Br)c(O)c(Br)c1 [Benzbromarone] | soluble |
